The text below walks through data of ChEMBL document CHEMBL5543145, “Discovery of the First-in-Class G9a/GLP PROTAC Degrader” (J Med Chem, 2024).

The source made the active and inactive calls. The rule behind the calls is not given here.

The target of assay [1] is T1, von Hippel-Lindau disease tumor suppressor/Histone-lysine N-methyltransferase EHMT2 (Homo sapiens, UniProt Q96KQ7+P40337). Kind of assay: PROTAC activity at G9a/VHL in human 22Rv1 cells assessed as induction of G9a degradation at 0.3 uM incubated for 24 hrs by Western blot analysis relative to control. In kind it is cell-based.
T1 sequence (P40337 whole entry partner): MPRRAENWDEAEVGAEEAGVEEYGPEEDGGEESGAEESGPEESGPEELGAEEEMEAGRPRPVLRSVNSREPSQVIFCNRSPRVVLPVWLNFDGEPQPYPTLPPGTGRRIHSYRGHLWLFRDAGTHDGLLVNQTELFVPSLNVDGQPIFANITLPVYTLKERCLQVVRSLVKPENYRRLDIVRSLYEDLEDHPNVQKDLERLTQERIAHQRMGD
T1 sequence (Q96KQ7 2-1210 limits assumed): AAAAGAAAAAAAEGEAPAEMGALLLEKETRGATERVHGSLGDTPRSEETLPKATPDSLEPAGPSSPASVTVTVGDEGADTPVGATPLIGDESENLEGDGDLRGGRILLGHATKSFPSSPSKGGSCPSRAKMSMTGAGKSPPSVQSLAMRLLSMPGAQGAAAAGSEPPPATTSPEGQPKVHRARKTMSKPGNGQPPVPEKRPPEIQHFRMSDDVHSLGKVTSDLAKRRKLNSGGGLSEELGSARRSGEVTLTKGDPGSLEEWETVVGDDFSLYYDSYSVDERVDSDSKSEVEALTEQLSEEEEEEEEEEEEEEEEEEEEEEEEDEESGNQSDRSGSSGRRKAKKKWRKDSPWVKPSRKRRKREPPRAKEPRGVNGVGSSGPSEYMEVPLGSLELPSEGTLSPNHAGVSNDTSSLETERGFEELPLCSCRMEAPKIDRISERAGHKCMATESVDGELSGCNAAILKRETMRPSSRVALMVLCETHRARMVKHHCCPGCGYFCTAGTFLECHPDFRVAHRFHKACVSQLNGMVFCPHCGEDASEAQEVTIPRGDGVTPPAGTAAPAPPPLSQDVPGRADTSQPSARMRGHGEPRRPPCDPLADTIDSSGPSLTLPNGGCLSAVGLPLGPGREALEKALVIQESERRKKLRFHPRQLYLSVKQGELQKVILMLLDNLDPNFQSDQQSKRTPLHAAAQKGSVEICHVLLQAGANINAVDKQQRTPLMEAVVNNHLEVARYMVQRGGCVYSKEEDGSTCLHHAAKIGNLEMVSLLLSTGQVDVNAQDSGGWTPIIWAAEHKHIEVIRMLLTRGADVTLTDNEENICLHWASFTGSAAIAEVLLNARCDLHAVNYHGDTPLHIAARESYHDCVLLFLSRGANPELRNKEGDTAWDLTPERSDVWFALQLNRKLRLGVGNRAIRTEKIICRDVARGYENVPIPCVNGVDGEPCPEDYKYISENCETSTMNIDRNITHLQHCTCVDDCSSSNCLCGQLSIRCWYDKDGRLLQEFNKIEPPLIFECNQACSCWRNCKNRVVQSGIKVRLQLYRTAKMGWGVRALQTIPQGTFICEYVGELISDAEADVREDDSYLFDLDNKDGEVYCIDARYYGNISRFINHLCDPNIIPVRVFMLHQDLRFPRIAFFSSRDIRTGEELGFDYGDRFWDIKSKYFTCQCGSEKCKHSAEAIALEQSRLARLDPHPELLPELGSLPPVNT
For assay [2], the target named is T1, von Hippel-Lindau disease tumor suppressor/Histone-lysine N-methyltransferase EHMT2. Kind of assay: PROTAC activity at G9a/VHL in human 22Rv1 cells assessed as induction of G9a degradation at 3 uM incubated for 24 hrs by Western blot analysis relative to control. The assay is classed as cell-based. On the technique in general: Immunoblotting shows a protein as a band on a membrane.

For assay [3] the target is unchanged. Kind of assay: PROTAC activity at G9a/VHL in human 22Rv1 cells assessed as induction of G9a degradation at 1 uM incubated for 24 hrs by Western blot analysis. In kind it is cell-based.
Assay [4] relates to CWR22R. Kind of assay: Cytotoxicity against human 22Rv1 cells assessed as growth inhibition measured for 7 days. The assay is classed as functional. The following applies: 22Rv1, 168 h, time 7 day.
Assay [5] deals with T1, von Hippel-Lindau disease tumor suppressor/Histone-lysine N-methyltransferase EHMT2. Put plainly: PROTAC activity at G9a/VHL in human 22Rv1 cells assessed as induction of G9a degradation at 3 uM measured at 24 to 48 hrs by Western blot analysis. In kind it is cell-based. The following applies: time 24-48 hrs.
For assay [6], the system named is CWR22R. Kind of assay: Inhibition of colony formation in human 22Rv1 cells upto 3 uM incubated for 8 days by ethyl violet staining based analysis. The assay is classed as functional, cell-based. The following applies: time 8.0 day.
Assay [7] concerns the target Histone-lysine N-methyltransferase EZH1 (Homo sapiens) (UniProt Q92800). Put plainly: Inhibition of EZH1 (unknown origin) at 10 uM relative to control.
In assay [8] the target is Histone-lysine N-methyltransferase EZH2 (Homo sapiens) (UniProt Q15910). Put plainly: Inhibition of EZH2 (unknown origin) at 10 uM relative to control.
Histone-lysine N-methyltransferase EZH2 (Homo sapiens), sequence (Q15910 whole entry, looked up): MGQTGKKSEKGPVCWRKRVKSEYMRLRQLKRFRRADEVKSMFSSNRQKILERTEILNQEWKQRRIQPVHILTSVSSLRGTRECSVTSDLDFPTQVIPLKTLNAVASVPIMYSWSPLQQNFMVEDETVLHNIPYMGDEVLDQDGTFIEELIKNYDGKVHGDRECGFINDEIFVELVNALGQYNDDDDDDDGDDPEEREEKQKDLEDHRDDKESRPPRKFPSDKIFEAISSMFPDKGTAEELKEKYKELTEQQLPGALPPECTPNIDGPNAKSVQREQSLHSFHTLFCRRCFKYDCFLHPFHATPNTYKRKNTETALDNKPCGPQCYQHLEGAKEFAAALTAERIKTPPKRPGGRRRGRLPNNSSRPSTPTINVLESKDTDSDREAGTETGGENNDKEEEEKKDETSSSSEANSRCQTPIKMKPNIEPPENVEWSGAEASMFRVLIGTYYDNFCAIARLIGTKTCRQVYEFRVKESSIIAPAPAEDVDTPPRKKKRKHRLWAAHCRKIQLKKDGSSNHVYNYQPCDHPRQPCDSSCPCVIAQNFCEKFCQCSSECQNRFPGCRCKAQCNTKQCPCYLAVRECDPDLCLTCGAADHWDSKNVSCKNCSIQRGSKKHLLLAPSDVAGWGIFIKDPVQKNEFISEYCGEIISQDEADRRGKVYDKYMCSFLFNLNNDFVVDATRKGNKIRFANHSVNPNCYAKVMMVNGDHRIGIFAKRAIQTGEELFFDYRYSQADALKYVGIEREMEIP
In assay [9] the target is Histone-lysine N-methyltransferase, H3 lysine-36 specific (Homo sapiens) (UniProt Q96L73). Put plainly: Inhibition of NSD1 (unknown origin) at 10 uM relative to control.
Histone-lysine N-methyltransferase, H3 lysine-36 specific (Homo sapiens), sequence (Q96L73 whole entry): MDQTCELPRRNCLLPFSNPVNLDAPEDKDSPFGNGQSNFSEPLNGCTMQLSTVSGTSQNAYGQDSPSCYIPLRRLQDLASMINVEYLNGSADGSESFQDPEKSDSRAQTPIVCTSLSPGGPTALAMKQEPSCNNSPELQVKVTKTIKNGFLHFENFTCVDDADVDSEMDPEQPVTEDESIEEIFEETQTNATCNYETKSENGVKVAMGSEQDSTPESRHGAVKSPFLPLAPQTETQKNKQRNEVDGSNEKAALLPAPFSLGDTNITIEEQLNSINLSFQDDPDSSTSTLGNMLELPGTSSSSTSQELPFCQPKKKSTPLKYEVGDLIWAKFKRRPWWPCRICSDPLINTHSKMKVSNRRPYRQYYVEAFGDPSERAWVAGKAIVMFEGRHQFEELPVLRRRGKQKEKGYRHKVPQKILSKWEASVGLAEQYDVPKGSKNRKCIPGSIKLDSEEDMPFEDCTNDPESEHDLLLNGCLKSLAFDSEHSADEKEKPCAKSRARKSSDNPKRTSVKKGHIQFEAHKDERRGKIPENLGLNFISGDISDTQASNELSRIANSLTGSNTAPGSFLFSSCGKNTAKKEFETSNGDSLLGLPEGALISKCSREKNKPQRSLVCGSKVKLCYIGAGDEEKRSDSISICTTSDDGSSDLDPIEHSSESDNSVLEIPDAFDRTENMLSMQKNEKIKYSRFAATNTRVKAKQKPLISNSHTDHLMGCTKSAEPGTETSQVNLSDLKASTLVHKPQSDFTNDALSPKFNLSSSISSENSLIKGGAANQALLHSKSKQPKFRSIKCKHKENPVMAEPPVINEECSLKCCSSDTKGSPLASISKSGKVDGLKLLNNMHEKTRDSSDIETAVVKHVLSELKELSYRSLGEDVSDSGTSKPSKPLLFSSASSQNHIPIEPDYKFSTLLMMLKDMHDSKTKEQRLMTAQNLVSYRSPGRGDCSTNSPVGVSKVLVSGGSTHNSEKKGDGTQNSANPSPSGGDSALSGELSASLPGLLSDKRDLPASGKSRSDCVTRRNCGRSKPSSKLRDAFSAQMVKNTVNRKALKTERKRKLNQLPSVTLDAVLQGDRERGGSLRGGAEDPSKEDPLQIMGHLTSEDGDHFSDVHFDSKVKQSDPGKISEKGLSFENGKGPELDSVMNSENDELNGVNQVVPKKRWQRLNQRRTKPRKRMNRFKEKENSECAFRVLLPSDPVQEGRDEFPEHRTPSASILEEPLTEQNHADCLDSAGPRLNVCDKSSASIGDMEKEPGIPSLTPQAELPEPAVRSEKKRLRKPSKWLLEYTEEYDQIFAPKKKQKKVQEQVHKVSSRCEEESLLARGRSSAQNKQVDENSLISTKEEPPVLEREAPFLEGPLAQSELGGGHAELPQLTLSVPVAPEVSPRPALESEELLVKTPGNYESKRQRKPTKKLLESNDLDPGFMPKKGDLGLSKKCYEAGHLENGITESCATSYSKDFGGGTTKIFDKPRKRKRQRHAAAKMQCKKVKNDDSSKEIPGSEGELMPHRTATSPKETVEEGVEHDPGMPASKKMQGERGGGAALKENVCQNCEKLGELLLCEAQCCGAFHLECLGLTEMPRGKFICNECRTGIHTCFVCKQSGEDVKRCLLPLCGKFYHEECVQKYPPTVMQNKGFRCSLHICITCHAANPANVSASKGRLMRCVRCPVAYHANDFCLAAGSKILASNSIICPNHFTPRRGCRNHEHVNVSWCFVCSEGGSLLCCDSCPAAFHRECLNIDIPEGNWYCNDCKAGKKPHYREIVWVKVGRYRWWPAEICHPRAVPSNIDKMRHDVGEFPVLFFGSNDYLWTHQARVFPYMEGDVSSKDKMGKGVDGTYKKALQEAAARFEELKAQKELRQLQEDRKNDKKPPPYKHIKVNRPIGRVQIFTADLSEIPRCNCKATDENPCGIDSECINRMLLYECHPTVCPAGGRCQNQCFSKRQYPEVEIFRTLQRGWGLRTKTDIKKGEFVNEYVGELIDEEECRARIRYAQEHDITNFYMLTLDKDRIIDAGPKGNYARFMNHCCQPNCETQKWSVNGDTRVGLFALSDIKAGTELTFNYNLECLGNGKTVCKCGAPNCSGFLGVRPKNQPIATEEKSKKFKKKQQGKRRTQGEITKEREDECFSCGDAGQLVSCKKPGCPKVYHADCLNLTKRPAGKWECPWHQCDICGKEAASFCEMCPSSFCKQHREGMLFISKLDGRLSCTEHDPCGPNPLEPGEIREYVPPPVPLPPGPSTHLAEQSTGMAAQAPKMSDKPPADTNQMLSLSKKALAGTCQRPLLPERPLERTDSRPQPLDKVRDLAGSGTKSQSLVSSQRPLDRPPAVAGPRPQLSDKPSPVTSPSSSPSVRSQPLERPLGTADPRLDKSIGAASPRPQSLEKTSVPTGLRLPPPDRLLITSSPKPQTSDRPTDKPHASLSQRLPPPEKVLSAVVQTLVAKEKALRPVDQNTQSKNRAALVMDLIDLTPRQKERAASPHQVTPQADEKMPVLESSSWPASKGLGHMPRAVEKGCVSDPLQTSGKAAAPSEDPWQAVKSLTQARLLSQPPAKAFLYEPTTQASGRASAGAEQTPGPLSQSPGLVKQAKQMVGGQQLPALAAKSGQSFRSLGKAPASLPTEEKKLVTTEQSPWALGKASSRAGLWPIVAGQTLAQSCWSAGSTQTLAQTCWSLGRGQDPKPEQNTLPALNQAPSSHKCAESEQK
Assay [10] has as its target Histone-arginine methyltransferase CARM1 (Homo sapiens) (UniProt Q86X55). Put plainly: Inhibition of PRMT4 (unknown origin) at 10 uM relative to control.
Assay [11] has as its target PRMT5/MEP50 complex (Homo sapiens) (UniProt O14744+Q9BQA1). Kind of assay: Inhibition of PRMT5/MEP50 (unknown origin) at 10 uM relative to control. The assay is classed as protein-complex assay.
Assay [12] has as its target Histone-lysine N-methyltransferase SETD1B (Homo sapiens) (UniProt Q9UPS6). Kind of assay: Inhibition of SET1b (unknown origin) at 10 uM relative to control.
The target of assay [13] is Histone-lysine N-methyltransferase SETD7 (Homo sapiens) (UniProt Q8WTS6). Kind of assay: Inhibition of SET7/9 (unknown origin) at 10 uM relative to control.
For the next assay, the species on record is Homo sapiens. Kind of assay: Inhibition of SET6 (unknown origin) at 10 uM relative to control.
The target in assay [14] is Histone-lysine N-methyltransferase SETD2 (Homo sapiens) (UniProt Q9BYW2). Kind of assay: Inhibition of SETD2 (unknown origin) at 10 uM relative to control.
Assay [15] addresses Histone-lysine N-methyltransferase SUV39H2 (Homo sapiens) (UniProt Q9H5I1). Kind of assay: Inhibition of SUV39H2 (unknown origin) at 10 uM relative to control.
Assay [16] deals with CWR22R. Put plainly: Effect on PRMT7 level in human 22Rv1 cells at 3 uM incubated for 24 hrs by Western blot analysis. In kind it is functional, cell-based.
Assay [17] has as its target T1, von Hippel-Lindau disease tumor suppressor/Histone-lysine N-methyltransferase EHMT2. Kind of assay: PROTAC activity at G9a/VHL in human K562 cells assessed as induction of G9a degradation at 3 uM incubated for 24 hrs by Western blot analysis. The assay is classed as cell-based.
For another assay, the system named is NCI-H1299. Put plainly: Cytotoxicity against human NCI-H1299 cells assessed as growth inhibition incubated for 8 days. The following applies: NCI-H1299, 192 h, time 8 day. The assay is classed as functional.

Regarding `COc1cc2c(NC3CCN(CCCC(=O)NCCCCCCCCCCCC(=O)N[C@H](C(=O)N4C[C@H](O)C[C@H]4C(=O)NCc4ccc(-c5scnc5C)cc4)C(C)(C)C)CC3)nc(N3CCC(F)(F)CC3)nc2cc1OCCCN1CCCC1`, the maximum response (Emax) (in general, the size of the effect at its maximum, as opposed to the concentration needed) in assay [1] is 73%; in assay [2], over 99%. For the same molecule, the result (in [3]; with CWR22R [16]; in [17]) was Active. Also, the GI50 (as a rule, the concentration giving 50% growth inhibition) in the assay with CWR22R [4] is 4.1 µM; in the assay with NCI-H1299, 5 µM. The Activity in assay [5] was 100%. Moreover, the inhibition (in general, the drop in the measured response relative to a control, in per cent) in the assay on CWR22R [6] was “Active”. For the same molecule, the inhibition in assay [7], in assay [8], in assay [9], in assay [10], in assay [11] and in assay [12] was over 50% each time. In addition, the inhibition (in assay [13]; in the assay listed under Homo sapiens; in assay [14]; in [15]) was over 50% in each case.
